The values that follow come from patent US7199143B2, “Chemical compounds” (AstraZeneca AB, priority 2002, dated 2007).

Experiment [1] concerns Staphylococcus aureus MRQR (methicillin resistant and quinolone resistant). The experiment can be described thus: MIC, agar-dilution, staphylococci. It counts as cell-based. The following applies: 10^4 CFU/spot, 37° C., 24 hours. As to the method: (§1) The following results were obtained on a standard in-vitro test system. The activity is described in terms of the minimum inhibitory concentration (MIC) determined by the agar-dilution technique with an inoculum size of 10^4 CFU/spot. Typically, compounds are active in the range 0.01 to 256 μg/ml.
(§2) Staphylococci were tested on agar, using an inoculum of 10^4 CFU/spot and an incubation temperature of 37° C. for 24 hours—standard test conditions for the expression of methicillin resistance.

In experiment [2] the test system is Staphylococcus aureus MSQS (methicillin sensitive and quinolone sensitive). The experiment can be described thus: MIC, agar-dilution, staphylococci. It counts as cell-based. The following applies: 10^4 CFU/spot, 37° C., 24 hours. As to the method:
as §1, §2

For experiment [3], the target named is T1, MAO-A (Homo sapiens, UniProt P21397).
T1 construct: made in house; host or cells: yeast
T1 sequence (P21397 1-527): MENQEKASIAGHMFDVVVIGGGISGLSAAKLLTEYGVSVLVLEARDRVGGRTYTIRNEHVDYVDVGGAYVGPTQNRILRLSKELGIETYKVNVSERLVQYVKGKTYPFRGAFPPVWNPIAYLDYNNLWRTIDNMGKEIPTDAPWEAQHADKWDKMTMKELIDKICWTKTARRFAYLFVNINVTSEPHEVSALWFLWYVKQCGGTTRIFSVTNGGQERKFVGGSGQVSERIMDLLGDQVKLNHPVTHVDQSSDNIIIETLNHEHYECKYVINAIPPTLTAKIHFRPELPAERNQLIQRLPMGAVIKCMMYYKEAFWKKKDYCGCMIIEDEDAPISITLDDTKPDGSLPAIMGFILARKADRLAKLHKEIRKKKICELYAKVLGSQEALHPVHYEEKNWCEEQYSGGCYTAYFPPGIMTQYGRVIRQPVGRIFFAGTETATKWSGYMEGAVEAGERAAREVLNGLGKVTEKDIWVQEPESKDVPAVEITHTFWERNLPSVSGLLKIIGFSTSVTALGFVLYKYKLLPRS
The experiment can be described thus: MAO-A standard in-vitro assay, human liver enzyme expressed in yeast. It counts as biochemical. The protocol:
The activity of the compounds of the invention against MAO-A was tested using a standard in-vitro assay based on human liver enzyme expressed in yeast as described in Biochem. Biophys. Res. Commun. 1991, 181, 1084–1088.

Experiment [4] relates to Streptococcus pneumoniae. The experiment can be described thus: MIC, agar with 5% defibrinated horse blood. It counts as cell-based. Conditions: agar + 5% horse blood, 5% carbon dioxide, 48 hours. The protocol:
as §1
(§3) Streptococci and enterococci were tested on agar supplemented with 5% defibrinated horse blood, an inoculum of 10^4 CFU/spot and an incubation temperature of 37° C. in an atmosphere of 5% carbon dioxide for 48 hours—blood is required for the growth of some of the test organisms. Fastidious Gram negative organisms were tested in Mueller-Hinton broth, supplemented with hemin and NAD, grown aerobically for 24 hours at 37° C., and with an innoculum of 5×10^4 CFU/well.

Experiment [5] deals with Streptococcus pyogenes. The experiment can be described thus: MIC, agar with 5% defibrinated horse blood. The following applies: agar + 5% horse blood, 5% carbon dioxide, 48 hours. Type of experiment: cell-based. As to the method:
as §1, §3

The subject of experiment [6] is Haemophilus influenzae. The experiment can be described thus: MIC, fastidious Gram negative organisms, Mueller-Hinton broth. Type of experiment: cell-based. Conditions: Mueller-Hinton broth with hemin and NAD, 24 hours, 5×10^4 CFU/well. The protocol: as §1, §3
Experiment [7] has as its system Moraxella catarrhalis. The description is as above. Type of experiment: cell-based. Conditions: Mueller-Hinton broth with hemin and NAD, 24 hours, 5×10^4 CFU/well. The protocol: as §1, §3

Converted amounts (≈) assume the structure as drawn.

`[N-]=[N+]=NCc1cn(C[C@H]2CN(c3ccc(C4=CC[S+]([O-])CC4)c(F)c3)C(=O)O2)nn1` (stereo partly drawn) [Example 3, (5R)-3-[4-(1(R,S)-Oxo-3,6-dihydro-2H-thiopyran-4-yl)-3-fluorophenyl]-5-[(4-azidomethyl)-1,2,3-triazol-1-ylmethyl]oxazolidin-2-one]: the MIC in experiment [1] was 8 µg/mL (≈ 18.5 µM); in experiment [2], 4 µg/mL (≈ 9.27 µM); in experiment [4], 2 µg/mL; in experiment [5] it was 2 µg/mL; in experiment [6], 2 µg/mL (≈ 4.64 µM); in experiment [7], 4 µg/mL (≈ 9.27 µM). Besides, the Ki in experiment [3] was over 410 µM.
